Results as given in US12600725B2 (Memorial Sloan-Kettering Cancer Center, priority 2013, dated 2026).
“And” between values parts separate entries of the source, which are not always exact repeats. Equal values may be shown once.

Experiments:
Hsp90α = Hsp90α (Homo sapiens, UniProt P07900); assay: biochemical; conditions: FP competition, 6 nM Cy3B-GM, 10 nM protein, 4° C. for 24 h
Grp94 = Grp94 (Canis lupus familiaris, UniProt P41148); conditions: read-out: Grp94; FP competition, 6 nM Cy3B-GM, 10 nM protein, 4° C. for 24 h
MDA-MB-468 cells = assay: Growth inhibition assay (Alamar blue); format: cell-based; conditions: Homo sapiens
Procedure: We evaluated the antiproliferative effects of inhibitors using the dye Alamar blue. This reagent offers a rapid objective measure of cell viability in cell culture, and it uses the indicator dye resazurin to measure the metabolic capacity of cells, an indicator of cell viability. Briefly, MDA-MB-468 cells were plated on Costar 96-well plates at 1500 cells/well. Cells were allowed to incubate for 24 h at 37° C. before drug treatment. Drugs were added in triplicate at the indicated concentrations, and the plate was incubated for 72 h. Alamar Blue (440 μM) was added, and the plate read 6 h later using Softmax Pro 6 software (Fluorescence intensity mode, excitation 530 nm, emission 580 nm, with 560 nm dichroic mirror). Results were analyzed using GraphPad Prism 5. The percentage cell growth inhibition was calculated by comparing fluorescence readings obtained from treated versus control cells, accounting for initial cell population (time zero).

Hsp90β = Hsp90β (Homo sapiens, UniProt P08238)
Trap-1 = target: T1, Trap-1 (Homo sapiens, UniProt Q12931); assay: biochemical
T1 sequence (Q12931 60-704): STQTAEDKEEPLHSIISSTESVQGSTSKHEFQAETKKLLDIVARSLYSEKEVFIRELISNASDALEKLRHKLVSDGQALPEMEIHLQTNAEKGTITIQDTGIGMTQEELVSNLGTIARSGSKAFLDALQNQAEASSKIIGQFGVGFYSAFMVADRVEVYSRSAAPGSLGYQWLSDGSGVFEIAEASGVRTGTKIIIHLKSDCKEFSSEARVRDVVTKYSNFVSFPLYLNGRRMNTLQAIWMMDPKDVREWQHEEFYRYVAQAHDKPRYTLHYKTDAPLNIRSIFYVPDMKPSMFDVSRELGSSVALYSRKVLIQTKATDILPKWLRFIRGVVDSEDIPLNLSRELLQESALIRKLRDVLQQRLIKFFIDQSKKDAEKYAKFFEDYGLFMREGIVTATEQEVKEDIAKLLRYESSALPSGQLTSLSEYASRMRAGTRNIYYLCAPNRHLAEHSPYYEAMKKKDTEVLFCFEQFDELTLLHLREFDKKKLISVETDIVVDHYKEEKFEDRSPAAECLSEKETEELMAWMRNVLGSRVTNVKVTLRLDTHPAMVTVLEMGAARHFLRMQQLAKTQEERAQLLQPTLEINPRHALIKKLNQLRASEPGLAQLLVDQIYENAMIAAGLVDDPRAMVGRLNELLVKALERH

Sequence of Grp94 (P41148 with tags, fused parts or gaps DELINS287-327GGGG): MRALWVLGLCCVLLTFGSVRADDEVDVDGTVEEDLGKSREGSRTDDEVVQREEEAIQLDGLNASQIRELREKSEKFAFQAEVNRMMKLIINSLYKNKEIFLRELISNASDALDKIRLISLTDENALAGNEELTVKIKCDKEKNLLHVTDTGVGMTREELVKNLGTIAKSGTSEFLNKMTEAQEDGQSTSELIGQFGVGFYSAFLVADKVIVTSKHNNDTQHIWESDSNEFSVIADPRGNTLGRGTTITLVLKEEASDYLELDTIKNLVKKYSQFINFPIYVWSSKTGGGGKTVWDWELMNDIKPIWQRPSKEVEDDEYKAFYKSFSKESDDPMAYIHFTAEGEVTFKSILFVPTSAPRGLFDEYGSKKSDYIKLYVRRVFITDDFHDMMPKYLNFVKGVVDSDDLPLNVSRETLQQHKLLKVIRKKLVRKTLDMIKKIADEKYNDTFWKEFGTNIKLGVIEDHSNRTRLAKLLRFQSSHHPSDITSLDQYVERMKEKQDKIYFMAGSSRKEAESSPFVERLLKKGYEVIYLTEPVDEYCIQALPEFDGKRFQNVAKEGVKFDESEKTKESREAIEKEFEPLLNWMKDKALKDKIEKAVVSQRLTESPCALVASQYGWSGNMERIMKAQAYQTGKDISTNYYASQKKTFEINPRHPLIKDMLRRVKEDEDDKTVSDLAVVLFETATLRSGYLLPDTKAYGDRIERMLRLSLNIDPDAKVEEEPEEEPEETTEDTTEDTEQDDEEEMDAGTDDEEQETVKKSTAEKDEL
Sequence of Hsp90β (P08238 whole entry): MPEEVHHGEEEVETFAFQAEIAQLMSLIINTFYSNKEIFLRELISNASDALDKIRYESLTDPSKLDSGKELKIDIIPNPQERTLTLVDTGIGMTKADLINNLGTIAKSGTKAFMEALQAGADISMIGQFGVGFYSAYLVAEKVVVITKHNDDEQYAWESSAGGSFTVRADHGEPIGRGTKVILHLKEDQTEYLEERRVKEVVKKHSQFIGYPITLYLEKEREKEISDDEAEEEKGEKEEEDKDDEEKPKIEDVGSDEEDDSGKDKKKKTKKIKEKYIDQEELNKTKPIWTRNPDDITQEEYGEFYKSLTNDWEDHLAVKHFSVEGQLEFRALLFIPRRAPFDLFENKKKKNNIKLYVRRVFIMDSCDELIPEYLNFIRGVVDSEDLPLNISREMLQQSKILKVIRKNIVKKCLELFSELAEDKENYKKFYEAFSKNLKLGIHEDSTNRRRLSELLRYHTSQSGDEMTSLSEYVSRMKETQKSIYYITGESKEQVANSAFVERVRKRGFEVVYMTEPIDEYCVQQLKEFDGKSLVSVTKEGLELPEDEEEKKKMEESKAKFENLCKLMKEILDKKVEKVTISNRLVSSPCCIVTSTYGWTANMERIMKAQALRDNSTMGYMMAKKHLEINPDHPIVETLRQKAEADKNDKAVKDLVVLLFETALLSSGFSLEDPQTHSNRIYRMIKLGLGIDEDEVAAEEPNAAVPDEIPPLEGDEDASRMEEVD

IC50 (Hsp90α) | IC50 (Grp94) | IC50 (MDA-MB-468 cells) | IC50 (Hsp90β) | IC50 (Trap-1) | SMILES
43.2 µM | 0.24 µM | 0.125 µM | – | – | CC(C)NCCCn1c(Sc2cc(Cl)cc(I)c2)nc2c(N)ncnc21 [HJP-V-149, 8-((3-chloro-5-iodophenyl)thio)-9-(3-(isopropylamino)propyl)-9H-purin-6-amine]
41.8 µM | 0.29 µM | 0.212 µM | – | – | CC(C)CNCCCn1c(Sc2cc(Cl)cc(I)c2)nc2c(N)ncnc21 [HJP-VI-4, 8-((3-chloro-5-iodophenyl)thio)-9-(3-(isobutylamino)propyl)-9H-purin-6-amine]
> 25 µM | 0.49 µM | 0.562 µM | – | – | CC(C)(C)CNCCCn1c(Sc2cc(Cl)cc(I)c2)nc2c(N)ncnc21 [HJP-VI-5, 8-((3-chloro-5-iodophenyl)thio)-9-(3-(neopentylamino)propyl)-9H-purin-6-amine]
27.8 µM | 0.54 µM | 0.314 µM | – | – | CC(C)(C)NCCCn1c(Sc2cc(Cl)cc(I)c2)nc2c(N)ncnc21 [HJP-VI-6, 9-(3-(tert-butylamino)propyl)-8-((3-chloro-5-iodophenyl)thio)-9H-purin-6-amine]
20 µM | 0.21 µM | 0.063 µM | – | – | C=C(C)c1cc(Cl)cc(Sc2nc3c(N)ncnc3n2CCCNC(C)C)c1 [HJP-VI-12, 8-((3-chloro-5-(prop-1-en-2-yl)phenyl)thio)-9-(3-(isopropylamino)propyl)-9H-purin-6-amine]
152 µM | 0.9 µM | 0.122 µM | – | – | C#Cc1cc(Cl)cc(Sc2nc3c(N)ncnc3n2CCCNC(C)C)c1 [HJP-VI-18, 8-((3-chloro-5-ethynylphenyl)thio)-9-(3-(isopropylamino)propyl)-9H-purin-6-amine]
– | 0.22 µM | 0.286 µM | – | – | CC(C)NCCCn1c(Sc2cc(Cl)cc(-c3ccc[nH]3)c2)nc2c(N)ncnc21 [HJP-VI-28, 8-((3-chloro-5-(1H-pyrrol-2-yl)phenyl)thio)-9-(3-(isopropylamino)propyl)-9H-purin-6-amine]
25.9 µM | 1.2 µM | 0.516 µM | – | – | CC(C)NCCCn1c(Sc2cc(Cl)cc(-c3ccn[nH]3)c2)nc2c(N)ncnc21 [HJP-VI-29, 8-((3-chloro-5-(1H-pyrazol-5-yl)phenyl)thio)-9-(3-(isopropylamino)propyl)-9H-purin-6-amine]
48.9 µM | 0.63 µM | 0.129 µM | – | – | C=Cc1cc(Cl)cc(Sc2nc3c(N)ncnc3n2CCCNC(C)C)c1 [HJP-VI-31, 8-((3-chloro-5-vinylphenyl)thio)-9-(3-(isopropylamino)propyl)-9H-purin-6-amine]
3.4 µM | 0.21 µM | 5.85 µM | – | – | CC(C)NCCCn1c(Sc2ccc(Cl)cc2I)nc2c(N)ncnc21 [HJP-VI-36, 8-((4-chloro-2-iodophenyl)thio)-9-(3-(isopropylamino)propyl)-9H-purin-6-amine]
21.3 µM | 0.28 µM | 0.166 µM | – | – | CC(C)NCCCn1c(Sc2cc(Cl)cc(-c3ccoc3)c2)nc2c(N)ncnc21 [HJP-VI-39, 8-((3-chloro-5-(furan-3-yl)phenyl)thio)-9-(3-(isopropylamino)propyl)-9H-purin-6-amine]
1.5 µM | 0.45 µM | 6.58 µM | – | – | CC(C)NCCCn1c(Sc2ccc(Cl)cc2-c2ccn[nH]2)nc2c(N)ncnc21 [HJP-VI-43, 8-((4-chloro-2-(1H-pyrazol-5-yl)phenyl)thio)-9-(3-(isopropylamino)propyl)-9H-purin-6-amine]
12.3 µM | 0.83 µM | 0.917 µM | – | – | CC(C)NCCCn1c(Sc2cc(Cl)cc(-c3cc[nH]c3)c2)nc2c(N)ncnc21 [HJP-VI-44, 8-((3-chloro-5-(1H-pyrrol-3-yl)phenyl)thio)-9-(3-(isopropylamino)propyl)-9H-purin-6-amine]
> 100 µM | 1.21 µM | – | > 100 µM | 1.87 µM | C#CCCCn1c(Sc2cc(Br)cc(OC(F)(F)F)c2)nc2c(N)ncnc21 [PDP-120A, 8-((3-Bromo-5-(trifluoromethoxy)phenyl)thio)-9-(pent-4-yn-1-yl)-9H-purin-6-amine]
> 100 µM | > 10 µM | – | > 100 µM | > 100 µM | C#CCCCn1cnc(N)c2nc(Sc3cc(Br)cc(OC(F)(F)F)c3)nc1-2 [PDP-120B]
> 100 µM | 1.66 ± 0.48 µM | – | > 100 µM | 2.2 ± 0.67 µM | C#CCCCn1c(Sc2cc(Cl)c(Cl)c(Cl)c2)nc2c(N)ncnc21 [PDP-121]
> 100 µM | 0.5 ± 0.39 µM | – | > 100 µM | 7.64 ± 2.15 µM | C#CCCCn1c(Sc2ccc(C(F)(F)F)cc2C(F)(F)F)nc2c(N)ncnc21 [PDP-122]

IC50 (Hsp90α) | IC50 (Grp94) | IC50 (MDA-MB-468 cells) | IC50 (Hsp90β) | IC50 (Trap-1) | SMILES
> 100 µM | 0.19 ± 0.01 µM | – | > 100 µM | 6.04 ± 0.55 µM | C#CCCCn1c(Sc2cc(Cl)cc(Cl)c2Cl)nc2c(N)ncnc21 [PDP-125A]
> 100 µM | 5.21 µM | – | > 100 µM | 58.8 µM | C#CCCCn1cnc(N)c2nc(Sc3cc(Cl)cc(Cl)c3Cl)nc1-2 [PDP-125B]
15.7 ± 0.35 µM | 0.27 ± 0.14 µM | – | 18.3 ± 1.29 µM | 4.03 ± 0.89 µM | C#CCCCn1c(Sc2ccc(Cl)c(Cl)c2Cl)nc2c(N)ncnc21 [PDP-126A]
> 100 µM | 8.7 µM | – | > 100 µM | 34.1 µM | C#CCCCn1cnc(N)c2nc(Sc3ccc(Cl)c(Cl)c3Cl)nc1-2 [PDP-126B]
> 100 µM | > 2.5 µM | – | > 100 µM | > 100 µM | Nc1ncnc2c1nc(Sc1cc(Cl)cc(Cl)c1)n2CCc1ccccc1 [PDP-127, 8-((3,5-Dichlorophenyl)thio)-9-phenethyl-9H-purin-6-amine]
> 50 µM | 12.8 ± 0.86 µM | – | > 100 µM | > 100 µM | Nc1ncn(CCC(F)(F)F)c2nc(Sc3cc(Cl)cc(Cl)c3)nc1-2 [PDP-I-13-N3, 8-((3,5-Dichlorophenyl)thio)-3-(3,3,3-trifluoropropyl)-3H-purin-6-amine]
> 50 µM | 0.57 ± 0.08 µM | – | > 100 µM | 10.1 ± 1.13 µM | Nc1ncnc2c1nc(Sc1cc(Cl)cc(Cl)c1)n2CCC(F)(F)F [PDP-I-13-N9, 8-((3,5-Dichlorophenyl)thio)-9-(3,3,3-trifluoropropyl)-9H-purin-6-amine]
> 100 µM | 0.27 ± 0.02 µM | – | > 100 µM | > 100 µM | C#CCCn1c(Sc2cc(Cl)cc(Cl)c2)nc2c(N)ncnc21 [PDP-I-14-N9, 9-(But-3-yn-1-yl)-8-((3,5-dichlorophenyl)thio)-9H-purin-6-amine]
> 100 µM | 2.16 ± 0.21 µM | – | > 100 µM | > 100 µM | C#CCCCn1c(Sc2cccc3ccccc23)nc2c(N)ncnc21 [PDP-I-16-N9]
4.82 ± 1.05 µM | 0.42 ± 0.04 µM | – | 10.2 ± 1.62 µM | 2.35 ± 0.09 µM | C#CCCCn1c(Sc2ccc(Cl)c(Cl)c2)nc2c(N)ncnc21 [PDP-I-25-N9]
13.9 µM and 14 µM | 0.66 ± 0.1 µM | – | > 50 µM | 4.9 ± 0.27 µM | C#CCCCn1c(Sc2ccc(Br)cc2CC)nc2c(N)ncnc21 [PDP-I-54-N9]
> 100 µM | 0.26 ± 0.07 µM | – | > 100 µM | > 100 µM | C#CCCCn1c(Sc2cc(Br)cc(Br)c2)nc2c(N)ncnc21 [PDP-I-59-N9]
2.18 ± 0.1 µM | 0.53 ± 0.03 µM | – | 2.82 µM | 2.18 ± 0.55 µM | C#CCCCn1c(Sc2ccc(Br)cn2)nc2c(N)ncnc21 [PDP-I-60-N9]
> 100 µM | 2.78 ± 0.21 µM | – | > 100 µM | > 100 µM | C#CCCCn1c(Sc2cc(Cl)cc3c(Cl)ccnc23)nc2c(N)ncnc21 [PDP-I-79-N9]
> 500 µM | 59.3 ± 2.69 µM | – | > 250 µM | > 300 µM | COc1cc(Cc2nc3c(N)ncnc3n2C(C)C)cc(OC)c1OC [PU-27]
> 500 µM | 91.3 ± 2.16 µM | – | > 250 µM | 227 ± 6.6 µM | CCC[C@H](C)n1c(Cc2cc(OC)c(OC)c(OC)c2)nc2c(N)ncnc21 [PU-34]
> 100 µM | 46.8 µM | – | > 100 µM | > 100 µM | C#CCCCn1cnc(N)c2nc(Sc3ccc(OC)cc3OC)nc1-2 [PU-H44]
